# Data from US20090074861A1, “STABLE TABLET CONTAINING DROXIDOPA” (DAINIPPON SUMITOMO PHARMA CO., LTD., priority 2005, published 2009).
# Test: Coloring and deliquescence of compressed droxidopa/additive mixtures on preservation
# Format: physicochemical
# Protocol: Droxidopa and the following excipients were mixed at 1:1 in a mortar and the mixture was compressed at a pressure of 20 kgf/cm^2 using an oil hydraulic press (manufactured by RIKEN). The obtained tablets were preserved under the respective conditions of 60° C. […] The 60° C. 2 week preservation product was measured for the color difference from the initial stage preservation product using a spectral calorimeter (SE-2000: manufactured by Nippon Denshoku Industries Co., Ltd.).
# Droxidopa and the following excipients were mixed at 4:1 in a mortar and the mixture was compressed at a pressure of 20 kgf/cm^2 using an oil hydraulic press (manufactured by RIKEN) .
smiles,measurement,setting,value
"N[C@H](C(=O)O)[C@H](O)c1ccc(O)c(O)c1 [droxidopa alone (without disintegrant), droxidopa]",60° C. × 2 W color difference,"droxidopa:additive 1:1 compressed tablet, difference from initial stage product",2.73
same,60° C. × 2 W color difference,droxidopa:additive 4:1 compressed tablet,2.73
